pIC50: −log10 of the molar value. Several values for one entry are separate records, joined by “and”; a condition that tells them apart may be missing. Identical values can stand only once. Entries after “also recorded” stand apart in the source; their conditions may differ. Like-named read-outs stand apart in the source and are kept apart here.

Here are results for one compound from patent US20220218667A1, “DUAL INHIBITORS OF SOLUBLE EPOXIDE HYDROLASE AND METHODS OF USE THEREOF” (OROX Biosciences, Inc., priority 2019, published 2022).

Data set [1] concerns C57B/L6 mice exposed to bleomycin. As to the kind of experiment: Example 1: prophylactic treatment of mice exposed to bleomycin (IPF model). Format: in vivo, mouse. From the text:
4-(5-phenyl-3-{3-[3-(4-trifluoromethyl-phenyl)-ureido]-propyl}-pyrazol-1-yl)-benzenesulfonamide (PTUPB) [termed OX1] was compared to Pirfenidone, Nintedanib, and GSK225629415 [termed OX3] for treatment of IPF using an established model for IPF treating, which is prophylactic treatment of mice exposed to the chemotherapeutic agent bleomycin. […] Pirfenidone and Nintedanib are standard of care for the treatment of idiopathic pulmonary fibrosis and served as reference compounds in the experiment.
C57B/L6 mice were used in the experiments. When used, Bleomycin was administered intra-oropharyngeally, 1.5 U/kg, QD per established protocol. The test articles were dosed via oral gavage in 200 μL/day vehicle. The doses and formulations of test articles were selected based on the literature describing the lowest doses capable of eliciting pharmacological action.
Animals were dosed with the test articles (or vehicle) starting at day −1 to day 20. On day 1, daily doses of Bleomycin commenced in all but group 1 (negative control) which received the vehicle. On day 21, all animals were weighed and sacrificed. After lungs and bronco-alveolar lavage fluid (BALF) were harvested, they were prepared according to standard procedures for further analysis and histology. All animals were assessed twice a week for body weight and overall appearance. Efficacy endpoints measured in this study included lung weight, total leukocytes, and histology as determined by Mason's Trichrome stain and scored using a modified Ashcroft score.
The following parameters were measured in bronchoalveolar fluid (BALF): 1) soluble collagen and 2) differential leukocyte counts for different leukocyte populations.
After weighing and removal of BALF from the lungs, they were inflated and fixed using 10% neutral buffered formalin for histopathology analysis. Fifty-four formalin-fixed lung samples from mice were submitted to HistoTox Labs and were processed routinely. Two slides from each block were sectioned and stained with hematoxylin and eosin (H&E) or Masson's trichrome. Glass slides were evaluated with light microscopy by a board-certified veterinary pathologist. Lung sections were scored according to the modified Ashcroft scale.

In data set [2] the test system is Human primary lung fibroblasts from IPF donors. As to the kind of experiment: Fibroblast-to-Myofibroblast Transition (FMT) assay. It counts as cell-based. Conditions: for IC50: Homo sapiens, Primary lung fibroblast, 1.25 ng/ml TGF-b1. The protocol:
OX1 was evaluated in a primary cell-based Fibroblast-to-Myofibroblast Transition (FMT) assay; an in vitro assay relevant to idiopathic pulmonary fibrosis (TPF). Human primary lung fibroblasts from three (3) IPF donors (IPF06, IPF07, and IPF08) were triggered using 1.25 ng/ml TGF-b1 to induce FMT, one hour after application of compounds. OX1 and Nintedanib (approved drug for TPF) were applied in […] in semi-log dilutions with the top concentration at […] to construct eight (8)-point concentration response curve (CRC) in biological duplicates (ie. on two (2) different cell plates at on (1) occasion). SB525334 was used at […] in 0.1% DMSO as a positive validation control. The readouts at 72 hours were high content analysis (HCA) for aSMA expression and DAPI staining for nuclear count as measurement of potential cytotoxic effects.

In a further data set the target is T1, COX-2 (Homo sapiens, UniProt P35354).
T1 construct: purchased Cayman Chemical 700100
T1 sequence (P35354 18-604): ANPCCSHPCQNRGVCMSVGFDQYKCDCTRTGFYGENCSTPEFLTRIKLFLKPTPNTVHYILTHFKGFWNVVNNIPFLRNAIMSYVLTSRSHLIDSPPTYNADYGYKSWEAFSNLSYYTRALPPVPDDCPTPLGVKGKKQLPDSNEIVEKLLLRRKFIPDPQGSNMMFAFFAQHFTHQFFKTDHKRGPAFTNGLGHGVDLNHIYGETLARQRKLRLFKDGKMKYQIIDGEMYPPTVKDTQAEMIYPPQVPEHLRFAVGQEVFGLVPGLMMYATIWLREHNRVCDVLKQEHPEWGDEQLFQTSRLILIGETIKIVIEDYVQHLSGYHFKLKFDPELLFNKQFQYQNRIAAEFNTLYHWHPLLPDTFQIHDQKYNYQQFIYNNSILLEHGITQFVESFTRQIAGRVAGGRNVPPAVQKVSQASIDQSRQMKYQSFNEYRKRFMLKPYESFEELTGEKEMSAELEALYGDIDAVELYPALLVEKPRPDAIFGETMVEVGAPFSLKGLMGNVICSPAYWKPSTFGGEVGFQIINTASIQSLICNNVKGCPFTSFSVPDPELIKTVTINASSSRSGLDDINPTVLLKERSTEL
Description: COX-2 inhibition IC50, COX Fluorescent Inhibitor Screening Assay. It counts as biochemical. On the procedure:
A COX Fluorescent Inhibitor Screening Assay Kit (catalog number 700100, Cayman Chemical, Ann Arbor, Mich.) is useful for assaying the ability of the compounds provided herein to inhibit ovine COX-1 and human recombinant COX-2 (% inhibition at 100 μM and IC50 values (M), respectively). Stock solutions of test compounds are dissolved in a minimum volume of DMSO. 10 μl of various concentrations of the test compound solutions, e.g., [I]final between 0.01 and 100 μM, are added to a series of supplied reaction buffer solutions (150 μl, 100 mM Tris-HCl, pH 8.0) with either COX-1 or COX-2 (10 μl) enzyme in the presence of Heme (10 μl) and a fluorometric substrate (10 μl). The reactions are initiated by quickly adding 10 μl of arachidonic acid solution and then incubating the system for two minutes at room temperature. Fluorescence of resorufin, which is produced by the reaction between PGG2 and fluorometric substrate, ADHP (10-acetyl-3,7-dihydroxyphenoxazine), is analyzed with an excitation wavelength of 535 nm and an emission wavelength of 590 nm. The intensity of this fluorescence is proportional to the amount of resorufin, which is proportional to the amount of PGG2 present in the well during the incubation. Percent inhibition is calculated by comparison from the 100% initial activity sample value (no inhibitor).

Where [3] appears, read: day 21, OX1, OX3, Nintedanib 30 mg/kg QD, Pirfenidone 100 mg/kg BID, oral.
Setting [4] is: day 21, compared to vehicle (Group 2), OX1, OX3, Nintedanib 30 mg/kg QD, Pirfenidone 100 mg/kg BID.

Usually IC50 stands for the point on the concentration scale where inhibition reaches its midpoint. By pIC50 is commonly meant the negative decadic logarithm of the IC50, by convention in mol/L. The low end stands for a high IC50, the high end for a low IC50. Turning to `NS(=O)(=O)c1ccc(-n2nc(CCCNC(=O)Nc3ccc(C(F)(F)F)cc3)cc2-c2ccccc2)cc1` [OX1, 4-(5-phenyl-3-{3-[3-(4-trifluoromethyl-phenyl)-ureido]-propyl}-pyrazol-1-yl)-benzenesulfonamide], the “body weight change at end of experiment compared to starting point” value in data set [1] (bleomycin mice, OX1 30 mg/kg QD oral gavage day -1 to 20, day 21 vs day -1, 30 mg/kg) is −1% and ~1%. For the same compound, the “body weight course over 21 days” value in data set [1] (bleomycin mice, oral gavage day -1 to 20, OX1, OX3, Nintedanib 30 mg/kg QD, Pirfenidone 100 mg/kg BID) is “lost the least weight”. Further, the “lung weight (indicator of fluid accumulation and inflammation)” value in data set [1] (day 21, OX1 30 mg/kg QD oral) was “performed best in reducing bronchoalveolar fluid (BALF) accumulation and inflammation”. Moreover, the “soluble collagen in BALF” value in data set [1] (day 21, OX1 30 mg/kg QD oral, 30 mg/kg) was “most effective in controlling the overall collagen production; also recorded: most effective test article in lowering production of soluble collagen”. Moreover, in data set [1] (setting [3]), the “neutrophil migration into BALF” value is listed as “effective”, the “number of lymphocytes in BALF” value was “most effective at maintaining a large number of lymphocytes” and the “total cell (leukocyte) count in BALF” value is reported as “did not demonstrate the same level of reduction”. Further, in data set [1] (setting [4]), the “increased collagen (fibrosis) score, trichrome” value is recorded as “lowest tissue deposition of collagen; also recorded: markedly reduced”; the “mean Ashcroft score (lung histology)” value is given as “markedly reduced”; the “mean score for mixed peribronchiolar/perivascular inflammation” value is recorded as “lower”. In data set [2], the “Loss of Nuclei” value is “Yes”. Further, in data set [2] (donor IPF06, readout at 72 hours, read-out: αSMA inhibition IC50 (μM), Patient Identifier IPF06), the IC50 was found to be 1 µM. The IC50 in data set [2] (donor IPF07, readout at 72 hours, read-out: αSMA inhibition IC50 (μM), Patient Identifier IPF07) came to 1.3 µM. Besides, the IC50 in data set [2] (donor IPF08, readout at 72 hours, read-out: αSMA inhibition IC50 (μM), Patient Identifier IPF08) was determined as 1 µM. Moreover, the IC50 in data set [2] (mean of three IPF donors, 72 hours, read-out: αSMA inhibition IC50 (μM), Mean) was found to be 1.1 µM. This compound had a pIC50 against COX-2 of 7.00.
